Patent US20260034192A1 (University of Saskatchewan, priority 2022, published 2026)
“And” between values parts separate entries of the source, which are not always exact repeats. Equal values may be shown once. “Also recorded” adds a separate entry of the source. Marks after values point to notes of the source that are not given here. Square brackets hold non-standard residues; d marks the D form. Peptide text beside a SMILES is read from it. dPhe(4-Cl) = N[C@H](Cc1ccc(Cl)cc1)C(=O)O; d2Nal = N[C@H](Cc1ccc2ccccc2c1)C(=O)O; dCit = NC(=O)NCCC[C@@H](N)C(=O)O; d3Pal = N[C@H](Cc1cccnc1)C(=O)O

Experiments:
[1] = system: alpacas; experiment: Alpaca random day study, single Cetrorelix injection (Example 3); type: in vivo; settings: for Duration from treatment to next wave emergence, mean / Variance of duration from treatment to wave emergence (synchrony): alpacas, n = 15, single i/m 1.5 mg on random day of wave
Method: Methods: Ultrasonographic methods and follicular endpoint recording were similar to those described in Example 2. Follicular endpoints were obtained from alpacas (n=15) before and after treatment, therefore each animal acts as its own control. A fixed calendar day (July 16) was pre-assigned for Cetrorelix treatment. Daily transrectal ultrasonography was performed (n=15 alpacas) from May 31 to June 16. This examination period was used to record the variance in wave emergence from a fixed calendar date (May 31) without giving treatment (control period). Animals were at unknown/random day of the wave at the beginning of this 17-day time-window (i.e., longer than one natural inter-wave interval); therefore, all animals were expected to have at least one wave emergence encompassing this period. All alpacas were treated with a single intramuscular injection of 1.5 mg (3 mL) Cetrorelix acetate on July 16 and daily ultrasound examinations continued from the day of treatment until Day 3 after the next (post-treatment) wave emergence (treatment period). Synchrony of wave emergence was compared between the control period and the treatment period.
Statistical analyses: A Proc Mixed repeated measures analysis of variance (SAS version 9.4) was performed to compare serial data (follicle size and follicle numbers changes over days) and ANOVA or paired T-test were used for single-point numerical measurements. Count data were compared using Fisher's Exact test. Synchrony of the wave emergence was compared using Barlett's and Levene's tests of homogeneity of the variance.

[2] = system: heifers; experiment: Single 3 mg Cetrorelix injection on Day 1, 3 or 6 of wave in heifers (Example 5); type: in vivo, cattle; settings: for Pregnant/AI: diagnosis 30 days after AI; for Ovulatory follicle size: in mm (unit assumed)
Method: Heifers on a random day of the cycle were treated with two i/m injections of prostaglandin analog and observed by transrectal ultrasonography for the day of ovulation (Defined as Day 0 of the wave). Heifers were then randomized into 4 groups (n=7 to 8 per group) and treated with normal saline (control group) or a single 3 mg i/m injection of cetrorelix on Day 1, Day 3 or Day 6 of the first follicular wave. […] Pregnancy diagnosis was done 30 days after artificial insemination.

[3] = system: mature Angus heifers; experiment: Cetrorelix versus estradiol benzoate synchronization protocol with AI, random day of cycle (Example 7); type: in vivo, cattle
Method: This experiment was conducted on 38 mature Angus heifers at the Federal University of Santa Maria in Brazil. Heifers on a random day of the cycle (defined as Day 0) were divided into 2 groups (n=19 per group) and treated with a single i/m injection of 3 mg cetrorelix or with estradiol benzoate (1 mg i/m). A progesterone-releasing device (CIDR) was placed in the vagina of heifers at this time. Eight days after the cetrorelix or estradiol treatments, heifers were given 500 ug cloprostenol (prostaglandin analog) i/m injections and the CIDR device was removed. […] Heifers were given 250 ug gonadorelin acetate (GnRH analog) i/m injection at the time of artificial insemination. […] Pregnancy diagnosis was done 29-30 days after artificial insemination.

[4] = system: GnRH-induced plasma LH levels and ovulation; experiment: GnRH challenge in heifers pre-treated with GnRH antagonists: plasma LH and ovulation (Example 10); type: in vivo, cattle; settings: for Plasma LH response to GnRH challenge: heifers pre-treated with antagonist 60 minutes before GnRH injection
Method: Methods: Pubertal heifers (n=10) with a functional CL were selected at the Federal University of Santa Maria. Heifers were administered an intramuscular (i/m) injection of prostaglandin F2a analog (PGF; Lutalyse 5 ml or Estrumate 2 ml) to induce CL regression. Heifers were randomly placed into 4 treatment groups at the time of PGF injection: Trt1 (n=2, 3 mg of Abarelix); Trt2 (n=2, 3 mg of Degarelix), Trt3 (n=2, 3 mg of Relugolix) and Trt 4 (n=4; Cetrorelix 3 mg). Heifers were treated with these GnRH antagonists 1.5 days (36 hr) after the PGF injection and the GnRH antagonist treatment time point was defined as −60 mins. Heifers were treated with GnRH ([…] of Fertagyl i/m) at 0 mins to induce ovulation. Jugular venipuncture plasma samples were collected every 60 minutes for 3 hours (from −60 min to 120 minutes, with t=0 min when GnRH is administered). Plasma samples were kept at 4C overnight and LH analysis was performed the next day using a bovine-specific ELISA commercial kit. Transrectal ultrasonography was conducted to the time of GnRH injection (Time 0 hr) and 2 days later (48 hr after GnRH injection) to record the size of dominant follicle and to detect ovulation after treatment.

[5] = after single injection of 0.25 mg in women; cited from earlier work
[6] = single 3 mg i/m on Day 1 (Cetro 1)
[7] = single 3 mg i/m on Day 3 (Cetro 3)
[8] = single 3 mg i/m on Day 6 (Cetro 6)
[9] = three cetrorelix groups combined
[10] = 3 mg cetrorelix or 1 mg estradiol benzoate i/m
[11] = individual heifers, 3 mg antagonist 60 min before GnRH
[12] = individual heifers, after GnRH injection, 3 mg antagonist at −60 min

CC(=O)N[C@H](Cc1ccc2ccccc2c1)C(=O)N[C@H](Cc1ccc(Cl)cc1)C(=O)N[C@H](Cc1cccnc1)C(=O)N[C@@H](CO)C(=O)N[C@@H](Cc1ccc(O)cc1)C(=O)N[C@H](CCCNC(N)=O)C(=O)N[C@@H](CC(C)C)C(=O)N[C@@H](CCCNC(=N)N)C(=O)N1CCC[C@H]1C(=O)N[C@H](C)C(N)=O [Cetrorelix, N-acetyl-3-(2-naphthyl)-D-alanyl-4-chloro-D-phenylalanyl-3-(3-pyridyl)-D-alanyl-L-seryl-L-tyrosyl-D-citrullyl-L-leucyl-L-arginyl-L-prolyl-D-alaninamide] (Ac-[d2Nal][dPhe(4-Cl)][d3Pal]SY[dCit]LRP[dA]-NH2)
Duration from treatment to next wave emergence, mean [1]: 5.33 ± 0.70 days and 5.33 days
Variance of duration from treatment to wave emergence (synchrony) [1]: 7.38
Duration from treatment to next wave emergence, mean ([1]; listed as Cetro): 5.33 days
Variance of duration from treatment to wave emergence (synchrony) ([1]; listed as Cetro): 7.381
Duration from treatment to next wave emergence, mean ([1]; listed as cetrorelix): about 5.33±0.70 days
Duration from Treatment to Wave Emergence ([1]; individual alpacas, single i/m injection of 1.5 mg Cetrorelix on random day of wave): 11 days and 3 days (2×) and 4 days (6×) and 9 days and 1 days and 6 days and 8 days (2×) and 7 days
Wave emergence after the cetrorelix treatment irrespective of the phase of the dominant follicle ([2]; single 3 mg (about 7.5 ug/kg) i/m, groups combined): about 3.5±0.4 days
Start of dominant follicle regression after cetrorelix treatment ([2]; single 3 mg i/m): ≤ 2 days
Day of second wave emergence [2, 6]: 4.4 ± 0.5^c
Days from second wave emergence to ovulation [2, 6]: 10.0 ± 0.6^ab* Days
Pregnancy rate (Pregnant/AI, percent) [2, 6]: (62%)
Treatment to wave emergence [2, 6]: 3.4 ± 0.5 days
Pregnant/AI [2, 6]: 5/8
Ovulatory follicle size [2, 6]: 14.4 ± 1.0
Day of second wave emergence [2, 7]: 7.0 ± 0.4^b
Days from second wave emergence to ovulation [2, 7]: 9.0 ± 0.4^ab Days
Pregnancy rate (Pregnant/AI, percent) [2, 7]: (66%)
Treatment to wave emergence (days) [2, 7]: 4.0 ± 0.4^ days
Pregnant/AI [2, 7]: 4/6
Ovulatory follicle size [2, 7]: 15.8 ± 0.6
Day of second wave emergence [2, 8]: 9.4 ± 0.5^a
Days from second wave emergence to ovulation [2, 8]: 8.4 ± 0.4^b Days
Pregnancy rate (Pregnant/AI, percent) [2, 8]: (42%)
Treatment to wave emergence [2, 8]: 3.4 ± 0.5 days
Pregnant/AI [2, 8]: 3/7
Ovulatory follicle size [2, 8]: 14.9 ± 0.3
Overall pregnancy rate, percent [2, 9]: 57%
Overall pregnancy rate, pregnant/AI [2, 9]: 12/21
Heifers showing estrous behavior, compared with estradiol-progesterone treatment ([3]; 3 mg cetrorelix i/m): greater proportion
Pregnant/Double AI [3, 10]: 7/9
Pregnant/Double AI, percent [3, 10]: 78%
Pregnant/Single AI [3, 10]: 8/10
Pregnant/Single AI, percent [3, 10]: 80%
Ovulations that occurred between 72 to 96 hr after prostaglandin injection ([3]; cetrorelix protocol): 90%
Pregnant/Total, percent (pregnancy rate) ([3]; random day of cycle, 3 mg cetrorelix i/m or 1 mg estradiol benzoate i/m, CIDR 8 days): 79%
Pregnant/Total ([3]; random day of cycle, 3 mg cetrorelix i/m or 1 mg estradiol benzoate i/m, CIDR 8 days, PGF, GnRH at AI): 15/19
Plasma LH response to GnRH challenge [4]: did not register an increase in LH
Plasma LH response to GnRH challenge ([4]; listed as cetrorelix): LH levels remained unchanged; also recorded: block the GnRH-induced LH release
Ovulation (Yes/No) within 48 hr of GnRH treatment ([4]; heifers, 3 mg antagonist 60 min before GnRH): No
Ovulation (Yes/No) within 48 hr of GnRH treatment ([4]; heifers, 3 mg antagonist 60 min before GnRH, listed as cetrorelix): prevent GnRH-induced ovulations
Plasma LH concentration at 60 minute, group Mean ([4]; heifers, after GnRH injection): 12.83 mIU/ml
Plasma LH concentration at 120 minute, group Mean ([4]; heifers, after GnRH injection): 12.18 mIU/ml
Plasma LH concentration at −60 minute, group Mean ([4]; heifers, time of 3 mg GnRH antagonist injection): 11.63 mIU/ml
Plasma LH concentration at 0 minute, group Mean ([4]; heifers, time of GnRH injection): 10.07 mIU/ml
Dominant follicle diameter (mm) 48 hr after GnRH Injection [4, 11]: 9.8 mm and 12 mm
Dominant follicle diameter (mm) at GnRH injection [4, 11]: 7.5 mm and 10.5 mm
Plasma LH concentration at 60 minute [4, 12]: 18.33 mIU/ml and 22.72 mIU/ml and 5.12 mIU/ml and 5.15 mIU/ml
Plasma LH concentration at 120 minute [4, 12]: 23.74 mIU/ml and 15.04 mIU/ml and 4.60 mIU/ml and 5.32 mIU/ml
Plasma LH concentration at −60 minute ([4]; individual heifers, time of 3 mg GnRH antagonist injection, 60 mins before GnRH): 24.29 mIU/ml and 12.03 mIU/ml and 5.24 mIU/ml and 4.96 mIU/ml
Plasma LH concentration at 0 minute ([4]; individual heifers, time of GnRH injection, 3 mg antagonist at −60 min): 18.10 mIU/ml and 12.23 mIU/ml and 5.29 mIU/ml and 4.66 mIU/ml
Elimination half-life [5]: 5 h
